Measured values: patent US10375956B2, “Herbicidally active 2-(substituted-phenyl)-cyclopentane-1,3-dione compounds and derivatives thereof” (Syngenta Limited, priority 2013, dated 2019)
Read-outs that look alike come from different tables or passages of the source.

Key:
Format in all cases: in vivo
[1] = tested on: Echinochloa crus-galli (ECHCG); assay: Test 1 glasshouse assay, post-emergence herbicidal activity; conditions: 312 h, after 13 days, read-out: Percentage phytotoxicity ECHCG
Description: (§1) Seeds of a variety of test species are sown in standard soil in pots. After cultivation for one day (pre-emergence) or after 8 days cultivation (post-emergence) under controlled conditions in a glasshouse (at 24/16° C., day/night; 14 hours light; 65% humidity), the plants are sprayed with an aqueous spray solution derived from the formulation of the “technical” (i.e. unformulated) active ingredient in acetone/water (50:50) solution containing 0.5% Tween 20 (polyoxyethylene sorbitan monolaurate, CAS Registry Number 9005-64-5). The test plants are then grown on under controlled conditions in a glasshouse (at 24/16° C., day/night; 14 hours light; 65% humidity) and watered twice daily. After 13 days for pre- or post-emergence, the test is evaluated visually, and an assessed percentage phytotoxicity score is given for each herbicidal application on each plant species (where 100%=total damage to plant; 0%=no damage to plant).
(§2) Test plants include the following: Abutilon theophrasti (ABUTH) and Amaranthus retroflexus (AMARE); these are all dicotyledonous (broadleaved) weeds. Setaria faberi (SETFA), Alopecurus myosuroides (ALOMY), and Echinochloa crus-galli (ECHCG); these are all grassy monocotyledonous weeds. Also: Zea mays (ZEAMX, corn/maize), which can be a grassy weed (“volunteer” corn) in some circumstances.
(§3) Lolium perenne (LOLPE), Alopecurus myosuroides (ALOMY), Echinochloa crus-galli (ECHCG), and Avena fatua (AVEFA); these are all grassy monocotyledonous weeds. Cool climate crop plant: Triticum aestivum (TRZAW, winter wheat).

[2] = tested on: Alopecurus myosuroides (ALOMY); assay: as above; conditions: 312 h, after 13 days, read-out: Percentage phytotoxicity ALOMY
Description: as §1, §2, §3

[3] = tested on: Beta vulgaris (BEAVA, sugarbeet); assay: Test 2 glasshouse assay (IF50 formulation, X-77), post-emergence herbicidal activity; conditions: 360 h, 15 DAA, visual score, read-out: Post-emergence herbicidal activity (percentage phytotoxicity) BEAVA; for plant injury at 30 g/ha: application rate 30 g/ha; for plant injury at 250 g/ha: application rate 250 g/ha
Description: (§4) Seeds of a variety of monocotyledonous and dicotyledonous test plants are sown in standard soil in pots. The plants are cultivated for one day (for pre-emergence) or for about 12 days (for post-emergence) under controlled conditions in a glasshouse (warm climate species at 24/18° C., cool climate species at 20/16° C., both at day/night; 16 hours light; 65% humidity).
(§5) An “instant formulation”, known as the “IF50”, containing 50 g/liter (i.e. 5% w/v) of the “technical” (i.e. unformulated) active ingredient is prepared by dissolving the active ingredient in a mixture of organic solvents and emulsifier, details of which are provided in the Table below. This IF50 is then mixed with a small, variable amount of acetone to aid dissolution, before addition of a 0.2% v/v aqueous solution of the adjuvant X-77 (which is a mixture of alkyl aryl polyoxyethylene glycols and free fatty acids in isopropanol, CAS Registry number 11097-66-8), as the aqueous diluent, to form an aqueous spray solution which contains a predetermined concentration of the active ingredient (which varies depending on the application rate of the active ingredient to the plants) and 0.2% v/v of the adjuvant X-77. This aqueous spray solution is then sprayed onto the plants, after one day's cultivation (for pre-emergence), or after about 12 days' cultivation (range=10-13 days) (for post-emergence).
(§6) The test plants are then grown on, in a glasshouse (greenhouse) under controlled conditions (warm climate species at 24/18° C., cool climate species at 20/16° C., both at day/night; 16 hours light; 65% humidity) and are watered twice daily. 15 days after application of the test herbicide (15DAA) (for post-emergence), and 20 days after application of the test herbicide (20DAA) (for pre-emergence), the test plants are evaluated visually, and an assessed percentage phytotoxicity score is given for each herbicidal application on each plant species (with 100%=total damage to plant; 0%=no damage to plant).
(§7) Cool climate crop plants: Triticum aestivum (TRZAW, winter wheat), Brassica napus (BRSNN, rape, also called oilseed rape or rapeseed), Beta vulgaris (BEAVA, sugarbeet). Warm climate crop plants: Glycine max (GLXMA, soybean).

[4] = tested on: Glycine max (GLXMA, soybean); assay: as above; conditions: 360 h, 15 DAA, visual score, read-out: Post-emergence herbicidal activity (percentage phytotoxicity) GLXMA; for plant injury at 30 g/ha: application rate 30 g/ha; for plant injury at 250 g/ha: application rate 250 g/ha
Description: as §4, §5, §6, §7

[5] = tested on: Brassica napus (BRSNN, rape); assay: as above; conditions: 360 h, 15 DAA, visual score, read-out: Post-emergence herbicidal activity (percentage phytotoxicity) BRSNN; for plant injury at 30 g/ha: application rate 30 g/ha; for plant injury at 250 g/ha: application rate 250 g/ha
Description: as §4, §5, §6, §7

[6] = tested on: Echinochloa crus-galli (ECHCG); assay: as above; conditions: 360 h, 15 DAA, visual score, read-out: Post-emergence herbicidal activity (percentage phytotoxicity) ECHCG; for pest or weed control at 30 g/ha: application rate 30 g/ha; for pest or weed control at 250 g/ha: application rate 250 g/ha
Description: as §4, §5, §6
(§8) Warm climate (“warm season”) grassy monocotyledonous weeds: Setaria faberi (SETFA), Panicum miliaceum (PANMI), Sorghum vulgare Pers. (SORVU) (or Sorghum bicolor (L) Moench ssp. Bicolor), Digitaria sanguinalis (DIGSA), Echinochloa crus-galli (ECHCG), and Brachiaria plantaginea (BRAPL).

[7] = tested on: Setaria faberi (SETFA); assay: as above; conditions: 360 h, 15 DAA, visual score, read-out: Post-emergence herbicidal activity (percentage phytotoxicity) SETFA; for pest or weed control at 30 g/ha: application rate 30 g/ha; for pest or weed control at 250 g/ha: application rate 250 g/ha
Description: as §4, §5, §6, §8

[8] = tested on: Panicum miliaceum (PANMI); assay: as above; conditions: 360 h, 15 DAA, visual score, read-out: Post-emergence herbicidal activity (percentage phytotoxicity) PANMI; for pest or weed control at 30 g/ha: application rate 30 g/ha; for pest or weed control at 250 g/ha: application rate 250 g/ha
Description: as §4, §5, §6, §8

[9] = tested on: Sorghum vulgare Pers. (SORVU); assay: as above; conditions: Sorghum bicolor, 360 h, 15 DAA, visual score, read-out: Post-emergence herbicidal activity (percentage phytotoxicity) SORVU; for pest or weed control at 30 g/ha: application rate 30 g/ha; for pest or weed control at 250 g/ha: application rate 250 g/ha
Description: as §4, §5, §6, §8

[10] = tested on: Digitaria sanguinalis (DIGSA); assay: as above; conditions: 360 h, 15 DAA, visual score, read-out: Post-emergence herbicidal activity (percentage phytotoxicity) DIGSA; for pest or weed control at 30 g/ha: application rate 30 g/ha; for pest or weed control at 250 g/ha: application rate 250 g/ha
Description: as §4, §5, §6, §8

[11] = post-emergence (Example 1B Table 1)
[12] = post-emergence (Example 1B Table 2)

Row | Compound | pest or weed control at 30 g/ha [1, 11] | pest or weed control at 250 g/ha [1, 11] | pest or weed control at 30 g/ha [2, 11] | pest or weed control at 250 g/ha [2, 11] | plant injury at 30 g/ha [3] | plant injury at 250 g/ha [3] | plant injury at 30 g/ha [4] | plant injury at 250 g/ha [4] | plant injury at 30 g/ha [5] | plant injury at 250 g/ha [5] | pest or weed control at 30 g/ha [6] | pest or weed control at 250 g/ha [6] | pest or weed control at 30 g/ha [7] | pest or weed control at 250 g/ha [7] | pest or weed control at 30 g/ha [8] | pest or weed control at 250 g/ha [8] | pest or weed control at 30 g/ha [9] | pest or weed control at 250 g/ha [9] | pest or weed control at 30 g/ha [10] | pest or weed control at 250 g/ha [10] | also measured
1 | C#CCC1CC(=O)C(c2c(F)cc(-c3ccc(F)cc3)cc2OC)C1=O (stereo not drawn) [Compound A20, 2-[2-fluoro-4-(4-fluorophenyl)-6-methoxyphenyl]-4-prop-2-ynylcyclopentane-1,3-dione] | 80% | 100% | 50% | 100% |  |  |  |  |  |  |  |  |  |  |  |  |  |  |  |  | 
2 | C#CCC1CC(=O)C(c2c(F)cc(-c3ccc(F)cc3F)cc2OC)C1=O (stereo not drawn) [Compound A21] | 90% | 100% | 40% | 70% |  |  |  |  |  |  |  |  |  |  |  |  |  |  |  |  | 
3 | C#CCC1CC(=O)C(c2c(Cl)cc(-c3ccc(Cl)cn3)cc2OC)C1=O (stereo not drawn) [Compound A10] | 100% | 100% | 90% | 100% | 60% | 80% | 40% | 70% | 80% | 80% | 100% | 100% | 100% | 100% | 100% | 100% | 100% | 100% | 100% | 100% | pest or weed control at 62.5 g/ha [1, 12]: 100%; pest or weed control at 250 g/ha [1, 12]: 100%; pest or weed control at 62.5 g/ha [2, 12]: 100%; pest or weed control at 250 g/ha [2, 12]: 100%
4 | C#CCC1CC(=O)C(c2c(F)cc(-c3ccc(Cl)cn3)cc2Cl)C1=O (stereo not drawn) [Compound A8] | 100% | 100% | 100% | 100% | 10% | 60% | 20% | 40% | 70% | 80% | 70% | 100% | 90% | 100% | 100% | 100% | 100% | 100% | 90% | 100% | pest or weed control at 62.5 g/ha [1, 12]: 100%; pest or weed control at 250 g/ha [1, 12]: 100%; pest or weed control at 62.5 g/ha [2, 12]: 80%; pest or weed control at 250 g/ha [2, 12]: 100%
5 | C#CCC1CC(=O)C(c2cc(-c3ncc(Cl)cn3)ccc2C)C1=O (stereo not drawn) [Compound A19] | 70% | 90% | 10% | 60% |  | 0% |  | 20% |  | 10% |  | 70% |  | 60% |  | 70% |  | 70% |  | 70% | 
6 | C#CCC1CC(=O)C(c2cc(-c3ccc(Cl)cc3Cl)ccc2C)C1=O (stereo not drawn) [Compound A15] |  | 70% |  | 10% |  | 40% |  | 10% |  | 60% |  | 70% |  | 30% |  | 70% |  | 40% |  | 30% | 
